Measurements from patent US5373089A, “Oxytocin antagonist” (Northwestern University, priority 1993, dated 1994).
Starred links: 1 amine or outer side, 2 acyl side, 3 side chain; linkers in the order of their positions; H or OH if unused. Positions of bridges follow the written chain, without caps; N, C: chain ends. Non-standard residues stand in square brackets, D forms with d. Residues, ends and D or L forms follow the SMILES beside them. X1 = O=C(CC1(S[*:2])CCCCC1)[*:1]

Columns and labels:
[1] = test system: ESTROUS RAT UTERUS; assay: Oxytocic bioassay (isolated rat uterus, integrated contraction response to oxytocin); assay type: cell-based; settings: for Oxytocic Bioassay pA2: virgin rat uterus in natural estrus, Munsick's buffer 0.5 mM Mg++, integrated contraction area
Source text: The protocol used for the oxytocin bioassay procedure is derived from procedures described in a paper by Sawyer, et al., Endocrinology, 106:81 (1980), which in turn was based on reports of Munsick, Brit. J. Pharmacol., 3:328 (1960), and Holton, Brit. J. Pharmacol., 3:328 (1948). The assay calculations for the pA2 estimates are described by Schild, British J. Pharmacology, 2:189 (1947). The major difference in the present procedure from those reported by others in the field is that the area under the contraction is integrated where most other techniques calculate the amplitude. Integration provides much more consistent and reliable results although the pA2 estimates are approximately an order of magnitude lower than those reported using amplitude of the contraction as the endpoint.
1. Animals--a 1.5 cm piece of uterus from a virgin rat (Holtzman) in natural estrus is used for the assay.
2. Buffer/Assay Bath--The buffer used is Munsicks. […] The buffer is gassed continuously with 95% oxygen; 5% carbon dioxide giving a pH of 7.4. The temperature of the assay bath is 37° C. A 10 ml assay bath is used that contains a water jacket for maintaining the temperature and inlet and outlet spikets for adding and removing buffer.
3. Polygraph/transducer--The piece of uterine tissue used for the assay is anchored at one end and connected to a Statham Strain Gauge Force Transducer at the other end which in turn is attached to a Grass Polygraph Model 79 for monitoring the contractions.
4. Assay Protocol. (a) The tissue is equilibrated in the assay bath for one hour with washing with new buffer every fifteen minutes. One gram of tension is kept on the tissue at all times.
(b) The tissue is stimulated initially with oxytocin at 10 nM to "acclimate" the tissue and with […] KCl to determine the maximum contractile response.
(d) The tissue is exposed to oxytocin (Calbiochemical, San Diego, Calif.) for one minute and washed out. There is a three minute interval before addition of the next dose of the agonist or antagonist. When the antagonist is tested, it is given five minutes before the agonist. The agonist is given for one minute. All responses are integrated using a 7P10 Grass Integrator. This is the major difference between the present protocol and others in the literature which usually measure amplitude of the contractions as the response. A single concentration of oxytocin, equal to 80% of the maximum response, is used to test the antagonist. […] This is repeated three times for each dose of antagonist for a three point assay.
(e) Calculations for pA2 : The dose-response (DR) ratios are calculated for antagonist and a Schild's Plot is performed by plotting the Log (DR-1) vs. Log of antagonist concentration. The line plotted is calculated by least squares regression analysis. The pA2 is the concentration of antagonist at the point where the regression line crosses the 0 point of the Log (DR-1) ordinate. The pA2 is the negative Log of the concentration of antagonist that will reduce the response to the agonist by one-half.
The protocol used for the oxytocin bioassay procedure is derived from procedures described in a paper by Sawyer, et al., Endocrinology, 106:81 (1980), which in turn was based on reports of Munsick, Brit. J. Pharmacol., 3:328 (1960), and Holton, Brit. J. Pharmacol., 3:328 (1948). The assay calculations for the pA2 estimates are described by Schild, Brit. J. Pharmacol. (1947). The major difference in procedure from those previously reported was the integration of the area under the contraction instead of merely calculating the amplitude. Integration provides more consistent and reliable results, although the pA2 estimates are about an order of magnitude lower than those reported using amplitude of the contraction as the endpoint.
A 1.5 cm piece of uterus from a virgin rat (Holtzman) in natural estrus is used for the assay.
The buffer used is Munsick's. […]

[2] = biological target: T1, RAT OXYTOCIN RECEPTOR (Rattus norvegicus, UniProt P70536); assay: Oxytocin receptor assay, pregnant rat uterus (P21) membranes, 3H-OT competition; assay type: binding
T1 construct: from tissue; host or cells: uterus of day-21 pregnant Holtzman rats, sucrose-gradient membrane fraction
T1 sequence (P70536 1-388): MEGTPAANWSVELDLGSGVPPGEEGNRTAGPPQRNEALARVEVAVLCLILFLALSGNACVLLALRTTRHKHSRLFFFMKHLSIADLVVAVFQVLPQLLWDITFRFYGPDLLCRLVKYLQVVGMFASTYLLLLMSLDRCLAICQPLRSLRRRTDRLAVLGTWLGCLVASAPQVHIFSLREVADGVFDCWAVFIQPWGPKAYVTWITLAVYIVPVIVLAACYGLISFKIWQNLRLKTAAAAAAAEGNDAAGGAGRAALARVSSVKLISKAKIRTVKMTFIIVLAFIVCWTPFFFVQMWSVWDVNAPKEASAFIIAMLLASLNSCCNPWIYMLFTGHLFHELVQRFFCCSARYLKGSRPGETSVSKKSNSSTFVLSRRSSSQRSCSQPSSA
Experimental: Uterine tissue was removed on day 21 of pregnancy (delivery=Days 211/2 to 221/2) from Holtzman rats. The tissue was emptied of its contents, rinsed in ice cold buffer, cut into small pieces and frozen at -70° C. until homogenization.
Oxytocin receptors (OTrs) reside on the cell membrane and are present at high concentrations at the end of pregnancy in uterine tissue. Frozen tissue is homogenized in Tris buffer, the homogenate filtered, and the filtrate centrifuged at 1000 g for 15 minutes at 4° C. The supernatant is centrifuged at 40,000 g for 30 minutes and the pellet containing the cell membranes resuspended in 10% sucrose. Density gradient ultracentrifugation is then performed by placing the 10 % sucrose suspension on top of 35% sucrose and centrifuging for 30 minutes in a swing bucket rotor at 105,000 g. The membranes at the interface of the 10%/35% sucrose are removed and resuspended in Tris buffer containing EDTA for 30 minutes. This procedure removes divalent cation and results in dissociation of any endogenously bound OT to the receptor. This mixture is then centrifuged for 15 minutes at 100,000 g and the pellet containing the membrane OTrs resuspended in Tris, PMSF, Mg^++, buffer by sonication.
The binding assay consist of 0.1 ml of 20,000 cmp of tritium labeled OT (New England Nuclear, […]), 0.1 ml of OT antagonist added at increasing concentration, 0.25 ml of buffer and 0.05 ml of membrane (70-150 ug protein). A nonspecific tube has 100× of cold OTA added to it. The incubation is for 30 minutes at 30 ° C. The membrane is pelleted by centrifugation in ultraclear mini tubes (5×41 mm) for 30 minutes at 105,000 g. The resulting pellet containing the bound ^3 H-OT is dissolved in 0.1N NaOH at 45 ° C. for 30 minutes and this mixture is then placed in liquid scintillation counting fluid and counted for dpms in a scintillation counter.
The data is analyzed by nonlinear curve fitting methods using McPherson's EBDA (J Pharmacol Methods 14:213-228, 1985) and Munson and Rodbard's LIGAND (Anal Biochem 107:220-239, 1980) program for saturation and competition analysis for determining Kds and Kis.

| RECEPTOR ASSAY Ka ([2]; pregnant rat uterus (P21), Table 3) | rOTr (OTA/ANTI) ([2]; ratio of binding affinity to ANTAG I, rat oxytocin receptor) | Compound | Oxytocic Bioassay pA2 [1] | Kd [2] | OXYTOCIC BIOASSAY ED50 ([1]; estrous rat uterus, Table 3) | BIOASSAY ED50 ([1]; estrous rat uterus, Table 4) | BIOASSAY (ANTI/OTA) ([1]; ratio to ANTAG I, rat oxytocic bioassay) | Oxytocic Bioassay pA2 ([1]; D-Trp^2,Pen^6,Arg^8 ] oxytocin) |
| --- | --- | --- | --- | --- | --- | --- | --- | --- |
|  |  | CC[C@H](C)[C@@H]1NC(=O)[C@H](Cc2ccccc2)NC(=O)[C@@H](Cc2c[nH]c3ccccc23)NC(=O)CC2(CCCCC2)SSC[C@@H](C(=O)N2CCC[C@H]2C(=O)N[C@@H](CCCNC(=N)N)C(=O)NCC(N)=O)NC(=O)[C@H](CC(N)=O)NC1=O [Compound B, [Pmp^1,D-Trp^2,Phe^3,Ile^4,Arg^8] oxytocin] ([dW]FINCPRG-NH2; linker N-5 via X1) | 7.51 | 8.62 nM |  |  |  |  |
| 24.40 10^+8 M^-1 | 20.0 | [(S)Pmp^1,D-Trp^2,Pen^6,Arg^8 ] oxytocin [Compound D] | 8.86 |  | 1.38 nM | 1.38 nM | 22.1 | greater than 8.86 |
